Assay results taken from US20060089410A1, “Combination of chemotherapeutic drugs for increasing antitumor activity” (Titan Pharmaceuticals, Inc., priority 2002, published 2006).

Experiments:
c-Myc oncogene = c-Myc oncogene expression by RT-PCR, Calu-6 cells; assay type: cell-based; details: for c-Myc oncogene expression: 96 hour exposure, n = 2
Method: (§1) T24 Bladder transitional carcinoma cells, Calu-6 anaplastic lung carcinoma cells, and SK-MES-1 squamous lung cell carcinoma cell cultures were purchased from the American Type Culture Collection (Manassas, Va.). All cell lines were cultured in RPMI-1640 with 10% fetal calf serum. For culture in microtiter dishes, cells were plated at a density of 10^4 cells/well and incubated at 37° C., 5% CO2 overnight.
(§2) After overnight incubation, drugs were added to wells in quadruplicate and incubated for 6 to 96 hours in the presence or absence of the oxyalkylene containing compound. […] the media was removed, fresh media were added with cytotoxic drug, and the cultures were incubated for another 6 hours.
Tumor cell culture mRNA was isolated by standard methods, and RT-PCR was conducted to determine levels of c-Myc oncogene expression. The c-Myc primer pair used for RT-PCR cycling was:
The c-Myc primer pair was cycled by the following program: 95° C. for 3 min., then 30 cycles of (95° C. for 1 min., then 55° C. for 1 min., then 72° C. for 1 min.) followed by holding temperature at 72° C. for 7 min. before ramping temperature to 4° C. Samples were analyzed quantitatively by 1% agarose gel electrophoresis and gel densitometry.

[1] = test system: T24 Bladder transitional carcinoma cells; test: Crystal violet microtiter assay, Pivanex then cytotoxic drug, T24; assay type: cell-based, human
Method: as §1, §2
The wells were then washed and medium without drug was added to each well. Microtiter plates were subsequently incubated for an additional 3 days before cell density was determined by a Crystal Violet Assay. Some cultures were alternatively fixed in methanol and stained with hematoxylin and eosin (H&E) stain for 5 minutes prior to microphotography.
PIVANEX (pivaloyloxymethyl butyrate) was obtained from Titan Pharmaceuticals Inc. (South San Francisco, Calif.) and was admixed with 0.05% Intralipid™ (Fresenius Kabi, Clayton, N.C.) prior to addition to culture media. The cytotoxic drugs gemcitabine (Gemzar; Eli Lilly and Co., Indianapolis, Ind.), cisplatin (Platinol, Bristol-Myers Squibb Co., Princeton, N.J.), paclitaxel (Taxol; Bristol-Myers Squibb Co., Princeton, N.J.), and docetaxel (Taxotere, Aventis Pharmaceuticals Products, Inc., Bridgewater, N.J.) were studied with PIVANEX.
Cells in microtiter wells were rinsed with PBS and fixed in two volumes of 100% cold methanol for 5 minutes. One volume of 0.5% crystal violet in 20% methanol was added and the attached cells stained for 10 minutes. The cells were then washed and crystal violet was eluted with 0.1 N sodium citrate buffer and read on an ELISA plate reader at 490 nm.

H522 NSCLC cell line = test: MTS growth inhibition assay, sequencing of Pivanex and docetaxel, H522; assay type: cell-based, human; details: after 24 hour exposure
Method: Human Non-Small Cell Lung Carcinoma Cell Lines, H522 and NCI-H23, were evaluated for growth inhibitory activity of Pivanex, alone and in combination with the standard chemotherapeutic agent, docetaxel. Cells were treated for three days with Pivanex followed by 24 hours of exposure to docetaxel or the cells were treated for 24 hours with docetaxel followed by three days of exposure to Pivanex. The cell growth inhibition was judged at the end of the 4-day experiments by a standard staining technique using MTS tetrazolium vital stain. […]
Exponentially growing cells were harvested with trypsin (0.05%)/EDTA (0.02%) and re-suspended in fresh medium containing 10% FBS. […] Absorbance was documented on a Dynex HD microplate reader at a wavelength of 490 nm. IC50 values were determined by using the Prism® GraphPad software from 3 different tests, each of which involved 4 replicates for each dose determination. The data are presented as percent growth inhibition, where 0% represents the mean value in wells to which only vehicle (0.1% DMSO) was added and was calculated as follows: % Growth Inhibition=(1−(ODtest/ODvehicle))×100 where ODtest is the optical density of the tested sample, OD vehicle is the optical density of the vehicle in which each respected drug is dissolved. […]

c-myc = test: Oncogene expression after exposure of tumor cells; assay type: cell-based; details: 72-hour exposure, 10-50 μM
Excerpt: (§3) The observed morphologic changes consistent with a more differentiated phenotype prompted investigation of oncogene expression following exposure to pivaloyloxymethyl butyrate.

p53 = test: Oncogene expression after exposure of tumor cells; assay type: cell-based; details: 72-hour exposure, 10-50 μM
Excerpt: as §3

ras = test: Oncogene expression after exposure of tumor cells; assay type: cell-based; details: 72-hour exposure, 10-50 μM
Excerpt: as §3

T24 bladder cancer cells = test: Pretreatment followed by various chemotherapeutic agents, T24; assay type: cell-based, human
Method: (§4) Human T24 bladder and A549 lung cancer cells were exposed to increasing concentrations of pivaloyloxymethyl butyrate for 6 or 72 hours followed by exposure to various chemotherapeutic agents. […] At higher dosages the increase in cytotoxicity following the sequential regimen would show after a shorter induction period with pivaloyloxymethyl butyrate as discussed above.

A549 lung cancer cells = test: Pretreatment followed by various chemotherapeutic agents, A549; assay type: cell-based, human
Method: as §4

[2] = Preliminary Phase I/II clinical trials, lung cancer and refractory malignancies metastatic to the liver; assay type: in vivo, human

With CCCC(=O)OCOC(=O)C(C)(C)C [Pivanex, pivaloyloxymethyl butyrate] the “concentrations (as low as) that decreased the expression of c-Myc oncogene” value (c-Myc oncogene; Calu-6, 96 hours in culture) was 10 to 50 µM, the c-Myc oncogene expression (c-Myc oncogene; Pivanex 10 μM) was 893 PCR units and the c-Myc oncogene expression (c-Myc oncogene; Pivanex 25 μM) was 743 PCR units. The c-Myc oncogene expression (c-Myc oncogene; Pivanex 50 μM) was 711 PCR units, the c-Myc oncogene expression (c-Myc oncogene; Pivanex 100 μM) was 647 PCR units and the c-Myc oncogene expression (c-Myc oncogene; Pivanex 200 μM) was 460 PCR units. For the same compound, the “T24 cancer cell viability (A^490 Absorbance)” value (“T24 cancer cell viability” below) ([1]; Pivanex 10 μM, cisplatin 0 μM) was 0.48, the “T24 cancer cell viability” value ([1]; Pivanex 25 μM, gemcitabine 0 nM) was 0.479 and the “T24 cancer cell viability” value ([1]; Pivanex 50 μM, cisplatin 0 μM) was 0.422. For the same compound, the “T24 cancer cell viability” value ([1]; Pivanex 50 μM, gemcitabine 0 nM) was 0.455, the “T24 cancer cell viability” value ([1]; Pivanex 100 μM, gemcitabine 0 nM) was 0.414 and the “T24 cancer cell viability” value ([1]; Pivanex 200 μM, gemcitabine 0 nM) was 0.41. The “cell growth with agent alone” value (H522 NSCLC cell line) was “steep increase in H522 cell growth”, the c-myc expression (c-myc) was “significant suppression” and the p53 expression (p53) was “significant suppression”. The ras expression (ras) was “significant suppression”, the “enhancement of cytotoxicity of chemotherapeutic agents” value (shortened to “enhancement”) (T24 bladder cancer cells; T24, 6-hour pretreatment, lower doses) was “did not enhance cytotoxicity” and the “enhancement” value (T24 bladder cancer cells; T24, 72-hour pretreatment) was “did enhance drug-induced cytotoxicity”. The “enhancement” value (A549 lung cancer cells; A549, 6-hour pretreatment, lower doses) was “did not enhance cytotoxicity”, the “enhancement” value (A549 lung cancer cells; A549, 72-hour pretreatment) was “did enhance drug-induced cytotoxicity” and the tolerability [2] was “well tolerated”.
